For test [1], the target named is T1, Solute carrier family 2, facilitated glucose transporter member 9 (Homo sapiens, UniProt Q9NRM0).
T1 sequence (Q9NRM0 whole entry): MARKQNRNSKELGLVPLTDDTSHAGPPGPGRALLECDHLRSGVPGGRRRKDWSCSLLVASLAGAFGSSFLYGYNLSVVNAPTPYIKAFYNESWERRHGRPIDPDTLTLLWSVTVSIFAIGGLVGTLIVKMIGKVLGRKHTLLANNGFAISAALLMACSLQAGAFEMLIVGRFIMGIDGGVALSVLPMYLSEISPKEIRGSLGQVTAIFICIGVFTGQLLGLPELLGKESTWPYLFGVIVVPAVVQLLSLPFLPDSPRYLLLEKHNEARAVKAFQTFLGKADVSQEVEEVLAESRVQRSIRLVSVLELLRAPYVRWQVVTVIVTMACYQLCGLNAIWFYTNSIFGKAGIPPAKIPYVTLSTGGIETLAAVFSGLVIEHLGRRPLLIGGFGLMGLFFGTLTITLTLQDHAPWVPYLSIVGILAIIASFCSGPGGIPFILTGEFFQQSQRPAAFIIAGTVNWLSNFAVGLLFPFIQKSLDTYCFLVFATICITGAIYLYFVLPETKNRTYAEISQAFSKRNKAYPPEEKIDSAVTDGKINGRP
In words: Substrate uptake by the Glucose Transporter Type 9 (GLUT9, SLC2A9) as assessed by the fluorescent FLIPR membrane potential dye in HEK-293 cells stably transfected with SLC2A9 isoform 1 (PubChem AID: 1794831). It counts as functional, cell-based, HEK293.

The target in test [2] is T1, Solute carrier family 2, facilitated glucose transporter member 9. The test is described as follows: Substrate uptake by the Glucose Transporter Type 9 (GLUT9, SLC2A9) as assessed by the fluorescent FLIPR membrane potential dye in HEK-293 cells stably transfected with SLC2A9 isoform 2 (PubChem AID: 1794831). It counts as functional, cell-based, HEK293.

pEC50: −log10 of the molar value.

On to `O=C(O)c1cc(=O)[nH]c(=O)[nH]1` [OROTIC ACID], for which the negative logarithm of the EC50 (pEC50) in test [1] and in test [2] (read-out: EC50) was 3.00 in each case.
For the compound `Oc1nc(O)c2nc(O)[nH]c2n1` [URIC ACID], the pEC50 (in general, the EC50 on a negative log10 scale, so that one unit is a factor of ten) in test [1] was 3.52. Moreover, in test [2] (hek293), the EC50 result is given as “Ec50 Cannot Be Calculated For Isoform 2”.

(Values after ChEMBL document CHEMBL5209567, “Membrane potential based assay for SLC2A9 using HEK-293 SLC2A9 OE cells” (2022).)
